Reference: patent US20250090510A1, “eIF4G1-eIF1 INHIBITORS AND USE THEREOF” (YEDA RESEARCH AND DEVELOPMENT CO. LTD., priority 2022, published 2025)

Key:
[1] = system: leaky scanning from cap-proximal AUG in HEK293T cells; assay: Leaky scanning GFP reporter with cap-proximal upstream AUG, western blot; assay type: cell-based, human; details: upstream AUG with 16 nt 5′UTR
Description: FIGS. 1A-G: Identification and initial characterization of eIF1-eIF4G1 inhibitors using a high-throughput drug screen (HTS). (1A) A flowchart describing the steps of the recombinant eIF1-eIF4G1 split-RL HTS. (1B) Selection of drugs that inhibit leaky scanning. HEK293T cells were transfected with a short 5′UTR bearing GFP reporter gene described on the top, treated with the indicated HTS hits, and then analyzed by western blot with GFP antibody. US and DS denote upstream and downstream AUG initiation sites, respectively. (1C) A graph showing the change in the ratio of the upstream and downstream AUG following treatment with the indicated drugs. (1D) The chemical structure of the eIF1-eIF4G1 inhibitors, i14G1-10 and i14G1-12. (1E) His-tagged eIF4G1 and His-tagged eIF1 were expressed in BL21 bacteria and purified using nickel NTA beads. Purified His-tagged eIF4G1 and His-tagged eIF1 were incubated with the indicated doses of either i14G1-10 (0-256 μM) or i14G1-12 (0-256 μM) for 5 minutes, followed by fluorescence measurement. For eIF4G1 excitation was at 280 nm and emission was at 350 nm. For eIF1 excitation was at 274 nm and emission was at 304 nm. The data shown represent three independent replicates. IC50 was calculated using Graphpad prism 9. (1F-1G) Western blots of GST pull down. […]
To address the functional significance of the temporal eIF1-eIF4G1 interaction, the inventors set out to develop pharmacological tools against this complex. To this end, the split-Renilla luciferase (RL) complementation assay previously found to be an efficient readout of eIF1 and eIF4G1 interaction in mammalian cells and a highly sensitive and powerful approach for the identification of protein-protein inhibitors was used. […] As knockdown of either eIF1 or eIF4G1 and interference with eIF1-eIF4G1 interaction led to the arrest of leaky scanning from cap-proximal AUG, the selected compounds were analyzed for their effect on initiation from cap-proximal AUG. […]

HCT116 = assay: CellTiter-Glo luminescent cell viability assay; assay type: cell-based; details: colorectal cancer (HCT116), increasing concentrations, 48 h
Protocol: (§1) FIGS. 3A-F: i14G1-10 and i14G1-12 inhibit mRNA translation and sensitize cell survival of eIF4G1 and eIF1 depleted cells. (3A) In-vitro translation using rabbit reticulocyte lysate which was pre-incubated with different concentrations of i14G1-10 or i14G1-12 for 10 minutes followed by the addition of capped firefly luciferase mRNA. After 90 minutes at 30° C., the luminescence signal was measured and the IC50 was calculated. The data represents mean±SEM of 6 independent repeats. (3B) HEK293T cells were treated with DMSO (vehicle control), and sub-cytotoxic concentrations of i14G1-10 (20 μM) and i14G1-12 (10 μM) for 3h. Cell lysates were then subjected to sucrose gradient sedimentation to obtain polysome profiles. (3C) HEK293T cells were treated with the indicated concentrations of i14G1-10 and i14G-12 for 3 h, followed by the addition of puromycin (10 μg/ml) for 5 minutes, after which cells were lysed and analyzed by western blot using an anti-puromycin antibody and anti-GAPDH antibody that serves as a loading control. The graph represents the mean±SEM chemiluminescence signal intensity of puromycin labeling normalized to GAPDH of 3 independent experiments. The calculated IC-50 is shown. (3D) HEK293T cells were transfected with either control or eIF4G1 siRNA in the absence or presence of eIF4G1 expression plasmid. As the eIF4G1 siRNA pool is directed against the 3′UTR, which is absent from the eIF4G1 expression plasmid, the exogenous eIF4G1 is resistant to the siRNA. 48 h after transfection, cells were treated with the indicated concentrations of i14G1-10 and i14G-12 for 3 h, followed by a 5 minutes puromycin pulse as described in 3C. The graph represents the mean±SEM chemiluminescence signal intensity of puromycin labeling normalized to GAPDH of 3 independent experiments. The calculated IC-50 is shown. (3E) The graphs represent cell viability of the indicated cell lines in the presence of increasing concentrations of i14G1-10 and i14G1, analyzed by Luminescent Cell Viability Assay. (3F) Pie charts showing the cell cycle distribution of HEK293T cells treated with DMSO, i14G1-10 and i14G1-12.
(§2) The indicated cell lines in 96-well plates were treated with increasing concentrations of i14G1-10 and i14G1-12. After 48 h, cells were subjected to cell viability measurement using CellTiter-Glo Luminescent Assay (Cat no. G7571, Promega).
(§3) This was true in breast cancer (MCF7), lung cancer (A549), colorectal cancer (HCT116), ovarian cancer (OVCAR8) and in a bone cancer sarcoma cell line (U20S). To examine whether the growth defect is associated with cell cycle progression, control and drug treated cells were subjected to DNA staining by propidium iodide and then a flow cytometry analysis to determine their distribution in the sub-G1 (dead cells), G1, S and G2/M phases of the cell cycle.

MCF7 = assay: CellTiter-Glo luminescent cell viability assay; assay type: cell-based; details: breast cancer (MCF7), increasing concentrations, 48 h
Protocol: as §1, §2, §3

U20S = assay: CellTiter-Glo luminescent cell viability assay; assay type: cell-based; details: bone cancer sarcoma cell line (U20S), increasing concentrations, 48 h
Protocol: as §1, §2, §3

| Structure (SMILES) | upstream to downstream AUG ratio (leaky scanning) [1] | growth/survival (HCT116) | growth/survival (MCF7) | growth/survival (U20S) |
| --- | --- | --- | --- | --- |
| Cn1ccnc1S/C(=C/C=C(C#N)C#N)c1ccc(Cl)cc1 [i14G1-12] | selectively changed the upstream to downstream ratio by inhibiting leaky scanning from the cap-proximal AUG | inhibited the growth/survival | inhibited the growth/survival | inhibited the growth/survival |
| O=C(/C=C/Sc1ccc(C(F)(F)F)cn1)c1ccccc1 [i14G1-10] | selectively changed the upstream to downstream ratio by inhibiting leaky scanning from the cap-proximal AUG | inhibited the growth/survival | inhibited the growth/survival | inhibited the growth/survival |
